Measured values from patent US11319298B2 (Merck Sharp & Dohme Corp., priority 2016, dated 2022).

Target: T1, human M4 muscarinic acetylcholine receptor (Homo sapiens, UniProt P08173)
T1 construct: expressed in transfected cells; host or cells: CHO-K1
T1 sequence (P08173 1-479): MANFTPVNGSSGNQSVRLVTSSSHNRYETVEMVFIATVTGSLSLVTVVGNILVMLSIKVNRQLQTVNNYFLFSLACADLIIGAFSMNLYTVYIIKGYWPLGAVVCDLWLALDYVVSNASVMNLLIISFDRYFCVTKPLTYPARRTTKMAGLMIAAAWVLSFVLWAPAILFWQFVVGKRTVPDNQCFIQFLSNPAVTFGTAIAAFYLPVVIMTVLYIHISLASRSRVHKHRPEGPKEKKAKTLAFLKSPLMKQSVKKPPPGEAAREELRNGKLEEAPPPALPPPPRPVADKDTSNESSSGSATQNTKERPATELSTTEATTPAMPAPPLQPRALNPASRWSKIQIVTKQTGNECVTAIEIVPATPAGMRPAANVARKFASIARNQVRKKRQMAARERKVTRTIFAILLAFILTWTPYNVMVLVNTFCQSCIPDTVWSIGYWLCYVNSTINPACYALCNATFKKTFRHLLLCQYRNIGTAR
Test: human FLIPR-based M4 PAM assay, CHO-K1 cells stably transfected with human M4 receptor and chimeric G-protein Gαqi5
Format: cell-based
Conditions: inflection point (IP) of dose response curve; acetylcholine added at 20% of maximum response; CHO-K1 human M4/Gαqi5, FLIPR Tetra
How it was run: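 The FLIPR read recorded 4 min after compound was added across a concentration range, then 3.5 min after acetylcholine giving 20% of its maximal response, with an occasional extra EC70 addition. Cells were dye-loaded for about 1 h at 37 °C. Potency is the curve inflection point from a four-parameter logistic fit.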

In order of rising EC50:
1. COc1ccc(OC2CCN(c3ncnc(Cl)c3C)CC2)cn1 [Example 49, 4-chloro-6-(4-((6-methoxypyridin-3-yl)oxy)piperidin-1-yl)-5-methylpyrimidine]  44 nM
2. Cc1c(Cl)ncnc1N1CCC(Oc2cccc(C#N)c2)CC1 [Example 50, 3-((1-(6-chloro-5-methypyrimidin-4-yl)piperidin-4-yl)oxy)benzonitrile]  49 nM
3. COc1ccc(OC2CCN(c3nc(OC)nc(Cl)c3C)CC2)cn1 [Example 227, 4-Chloro-2-methoxy-6-(4-((6-methoxypyridin-3-yl)oxy)piperidin-1-yl)-5-methylpyrimidine]  55 nM
4. Cc1nc(Cl)c(C)c(N2CCC(Oc3cccc(C#N)c3)CC2)n1 [Example 55, 3-((1-(6-chloro-2,5-dimethylpyrimidin-4-yl)piperidin-4-yl)oxy)benzonitrile]  59 nM
5. COc1ccc(OC2CCN(c3nc(C)nc(Cl)c3C)CC2)cc1 [Example 62, 4-chloro-6-(4-(4-methoxyphenoxy)piperidin-1-yl)-2,5-dimethylpyrimidine]  94 nM
6. COc1ccc(OC2CCN(c3nnc(C(=O)Nc4ccncc4)cc3C)CC2)cn1 [Example 120, 6-{4-[(6-methoxypyridin-3-yl)oxy]piperidin-1-yl}-5-methyl-N-pyridin-4-ylpyridazine-3-carboxamide]  96 nM
7. Cc1c(Cl)ncnc1N1CCC(Oc2ccc3nn(C)cc3c2)CC1 [Example 66, 5-((1-(6-chloro-5-methylpyrimidin-4-yl)piperidin-4-yl)oxy)-2-methyl-2H-indazole]  106 nM
8. COc1ccc(OC2CCN(c3nnc(C(=O)N[C@@H]4CCc5cccnc5C4)cc3C)CC2)cn1 [Example 126A, (R)-6-{4-[(6-methoxypyridin-3-yl)oxy]piperidin-1-yl}-5-methyl-N-(5,6,7,8-tetrahydroquinolin-7-yl)pyridazine-3-carboxamide]  110 nM
9. COc1ccc(O[C@@H]2CCN(c3ncnc(Cl)c3C)C[C@@H]2F)cc1 (relative stereo) [Example 13, 4-chloro-6-((cis)-3-fluoro-4-(4-methoxyphenoxy)piperidin-1-yl)-5-methylpyrimidine]  110 nM
10. CNC(=O)c1cc(C)c(N2CCC(Oc3ccc(OC)nc3)CC2)nn1 [Example 129, 6-{4-[(6-methoxypyridin-3-yl)oxy]piperidin-1-yl}-N,5-dimethylpyridazine-3-carboxamide]  121 nM
11. Cc1c(Cl)nc(CO)nc1N1CCC(Oc2ccc3c(ccn3C)c2)CC1 [Example 29, (4-chloro-5-methyl-6-(4-((1-methyl-1H-indol-5-yl)oxy)piperidin-1-yl)pyrimidin-2-yl)methanol]  126 nM
12. Cc1ncc(C)c(N2CCC(Oc3ccc(OCC(C)(C)N)nc3)CC2)n1 [Example 72, 1-((5-((1-(2,5-dimethylpyrimidin-4-yl)piperidin-4-yl)oxy)pyridin-2-yl)oxy)-2-methylpropan-2-amine]  140 nM
13. COc1ccc(OC2CCN(c3nc(S(C)(=O)=O)nc(Cl)c3C)CC2)cc1 [Example 73, 4-chloro-6-(4-(4-methoxyphenoxy)piperidin-1-yl)-5-methyl-2-(methylsulfonyl)pyrimidine]  141 nM
14. Cc1ncc(C)c(N2CC[C@@H](Oc3cccc(C#N)c3)[C@@H](F)C2)n1 [Example 75, 3-(((3S,4R)-1-(2,5-dimethylpyrimidin-4-yl)-3-fluoropiperidin-4-yl)oxy)benzonitrile]  156 nM
15. Cc1c(Cl)nc(CO)nc1N1CCC(Oc2ccc3c(c2)NCCC3)CC1 [Example 35, (4-chloro-5-methyl-6-(4-((1,2,3,4-tetrahydroquinolin-7-yl)oxy)piperidin-1-yl)pyrimidin-2-yl)methanol]  220 nM
16. Cc1cc(C(=O)N[C@@H]2CCc3ncccc3C2)nnc1N1CCC(Oc2cccc(C#N)c2)CC1 [Example 130B, (R)-6-[4-(3-cyanophenoxy)piperidin-1-yl]-5-methyl-N-(5,6,7,8-tetrahydroquinolin-6-yl)pyridazine-3-carboxamide]  254 nM
17. Cc1cc(C(=O)NC2C3CC2C3)nnc1N1CCC(Oc2ccc3c(c2)C(=O)N(C)C3)CC1 (stereo not shown) [Example 157, N-bicyclo[1.1.1]pent-2-yl-5-methyl-6-{4-[(2-methyl-3-oxo-2,3-dihydro-1H-isoindol-5-yl)oxy]piperidin-1-yl}pyridazine-3-carboxamide]  277 nM
18. COc1ccc(OC2CCN(c3nnc(C(=O)NC4CCc5ncccc5C4)cc3C)CC2)cn1 (stereo not shown) [Example 163, 6-{4-[(6-methoxypyridin-3-yl)oxy]piperidin-1-yl}-5-methyl-N-(5,6,7,8-tetrahydroquinolin-6-yl)pyridazine-3-carboxamide]  325 nM
19. COc1ccc(OC2CCN(c3nnc(C(=O)NC4CCc5cc(F)ccc5C4)cc3C)CC2)cn1 (stereo not shown) [Example 168, N-(6-fluoro-1,2,3,4-tetrahydronaphthalen-2-yl)-6-{4-[(6-methoxypyridin-3-yl)oxy]piperidin-1-yl}-5-methylpyridazine-3-carboxamide]  446 nM
20. COc1ccc(OC2CCN(c3nnc(C(=O)NCc4ccc(C#N)cc4)cc3C)CC2)cn1 [Example 171, N-(4-cyanobenzyl)-6-{4-[(6-methoxypyridin-3-yl)oxy]piperidin-1-yl}-5-methylpyridazine-3-carboxamide]  471 nM
21. COC(=O)c1cc(C)c(N2CCC(Oc3ccc(OC)nc3)CC2)nc1C#N [Example 45, methyl 2-cyano-6-(4-((6-methoxypyridin-3-yl)oxy)piperidin-1-yl)-5-methylnicotinate]  493 nM
22. COc1ccc(OC2CCN(c3nnc(C(=O)N[C@H]4CCc5ccccc54)cc3C)CC2)cn1 [Example 173, N-[(1S)-2,3-dihydro-1H-inden-1-yl]-6-{4-[(6-methoxypyridin-3-yl)oxy]piperidin-1-yl}-5-methylpyridazine-3-carboxamide]  552 nM
23. COc1ccc(OC2CCN(c3nc(C(=O)NC45CC(C4)C5)nc(Cl)c3C)CC2)cn1 [Example 210, N-(bicyclo[1.1.1]pentan-1-yl)-4-chloro-6-(4-((6-methoxypyridin-3-yl)oxy)piperidin-1-yl)-5-methylpyrimidine-2-carboxamide]  592 nM
24. Cc1c(Cl)nc(CO)nc1N1CCC(Oc2ccc3nonc3c2)CC1 [Example 5, (4-(4-(benzo[c][1,2,5]oxadiazol-5-yloxy)piperidin-1-yl)-6-chloro-5-methylpyrimidin-2-yl)methanol]  766 nM
25. COc1ccc(OC2CCN(c3ncnc(N4CCc5scnc5C4)c3C)CC2)cn1 [Example 229, 5-(6-(4-((6-methoxypyridin-3-yl)oxy)piperidin-1-yl)-5-methylpyrimidin-4-yl)-4,5,6,7-tetrahydrothiazolo[4,5-c]pyridine]  807 nM
26. COc1ccc(OC2CCN(c3nnc(C(=O)NCc4ccc(F)cc4Cl)cc3C)CC2)cn1 [Example 183, N-(2-chloro-4-fluorobenzyl)-6-{4-[(6-methoxypyridin-3-yl)oxy]piperidin-1-yl}-5-methylpyridazine-3-carboxamide]  915 nM
27. COc1ccc(OC2CCN(c3nc(C(=O)NC4CCc5ccncc5C4)nc(Cl)c3C)CC2)cn1 (stereo not shown) [Example 216, 4-chloro-6-(4-((6-methoxypyridin-3-yl)oxy)piperidin-1-yl)-5-methyl-N-(5,6,7,8-tetrahydroisoquinolin-7-yl)pyrimidine-2-carboxamide]  997 nM
28. COc1ccc(OC2CCN(c3ncnc(N4CCC(F)(F)C4)c3C)CC2)cn1 [Example 231, 4-(3,3-difluoropyrrolidin-1-yl)-6-(4-((6-methoxypyridin-3-yl)oxy)piperidin-1-yl)-5-methylpyrimidine]  1090 nM
29. COC1CCN(c2nnc(C(=O)NCc3ccncc3)cc2C)CC1 [Example 7, 6-(4-methoxypiperidin-1-yl)-5-methyl-N-(pyridin-4-ylmethyl)pyridazine-3-carboxamide]  1240 nM
30. COc1ccc(OC2CCN(c3nnc(C(=O)NCc4ccc(OC)c(C(F)(F)F)c4)cc3C)CC2)cn1 [Example 186, 6-{4-[(6-methoxypyridin-3-yl)oxy]piperidin-1-yl}-N-[4-methoxy-3-(trifluoromethyl)benzyl]-5-methylpyridazine-3-carboxamide]  1250 nM
31. COc1ccc(OC2CCN(c3ncnc(-c4cccnc4)c3C)CC2)cn1 [Example 251, 4-(4-((6-methoxypyridin-3-yl)oxy)piperidin-1-yl)-5-methyl-6-(pyridin-3-yl)pyrimidine]  1440 nM
32. COc1ccc(OC2CCN(c3ncnc(N4Cc5cccnc5C4)c3C)CC2)cn1 [Example 232, 6-(6-(4-((6-methoxypyridin-3-yl)oxy)piperidin-1-yl)-5-methylpyrimidin-4-yl)-6,7-dihydro-5H-pyrrolo[3,4-b]pyridine]  1490 nM
33. Cc1ncc(C)c(N2CCC(Oc3cccnc3)CC2)n1 [Example 19, 2,5-dimethyl-4-(4-(pyridin-3-yloxy)piperidin-1-yl)pyrimidine]  2920 nM
34. CSc1ncc(C#N)c(N2CCC(Oc3cccnc3)CC2)n1 [Example 95A, 2-(methylthio)-4-(4-(pyridin-3-yloxy)piperidin-1-yl)pyrimidine-5-carbonitrile]  4940 nM
